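Five compound concentrations were applied to cells in 96-well plates for 48 hours; endpoints were derived by simple linear interpolation of the resulting dose-response curve. GI50 is the concentration that inhibits growth by half.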 Active and inactive are the calls of the source. No stated cut-off is given here; in the data, active = GI50 up to about 1.1 µM and inactive = higher. *1 amine or outer side, *2 acyl side, *3 side chain or, on linkers, in order; H or OH if unused. Where a SMILES comes first, the peptide text is derived from it. Bridges are numbered along the chain shown (N, C = ends). [ ]: non-standard residue; d: D form. The star is where a group is joined. ξ: configuration not given here. ξOrn(4,5-diOH) = O=C(C(CC(O)C(O)N[*:3])N[*:1])[*:2]; ξhTyr(βξ-OH,γξ-OH) = NC(C(=O)O)C(O)C(O)c1ccc(O)cc1; ξPro(3ξ-OH,4ξ-Me) = CC1CNC(C(=O)O)C1O; X55 = CCCCC/C=C/C/C=C\CCCCCCCC(=O)*; Hyp = O=C(O)[CH]1C[CH](O)CN1
How the values were obtained:
Experiment in all cases: growth of human tumour cells (NCI), 48 h
[1] = system: SF-539
[2] = system: BT-549
[3] = system: TK-10
[4] = system: PC-3
[5] = system: NCI-H522
[6] = system: HT-29
[7] = system: NCI-H460
[8] = system: U-251
[9] = system: HOP-62
[10] = system: NCI-H23
[11] = system: OVCAR-4
[12] = system: DU-145
[13] = system: SK-MEL-28
[14] = system: HCT-116
[15] = system: NCI/ADR-RES
[16] = system: RPMI-8226
[17] = system: UACC-62
[18] = system: SR
[19] = system: SNB-19

SMILES	GI50 [1]	GI50 [2]	GI50 [3]	GI50 [4]	GI50 [5]	GI50 [6]	GI50 [7]	GI50 [8]	GI50 [9]	GI50 [10]	GI50 [11]	GI50 [12]	GI50 [13]	GI50 [14]	GI50 [15]	GI50 [16]	GI50 [17]	GI50 [18]	GI50 [19]
Cc1cn(C2CCN(CC3COC(C)(C)O3)O2)c(=O)[nH]c1=O (stereo unspecified)	> 100 µM (inactive)	> 100 µM (inactive)	> 100 µM (inactive)	> 100 µM (inactive)	> 100 µM (inactive)	> 100 µM (inactive)	> 100 µM (inactive)	> 100 µM (inactive)	> 100 µM (inactive)	> 100 µM (inactive)	> 100 µM (inactive)	> 100 µM (inactive)	> 100 µM (inactive)	> 100 µM (inactive)	> 100 µM (inactive)	> 100 µM (inactive)	> 100 µM (inactive)	> 100 µM (inactive)	–
C=C1C(=O)OC2CC(=C)C3CC=C(C)C3CC12 (stereo unspecified)	38.1 µM (inactive)	14.7 µM (inactive)	18 µM (inactive)	14.9 µM (inactive)	14.4 µM (inactive)	13 µM (inactive)	28.8 µM (inactive)	15.3 µM (inactive)	47 µM (inactive)	–	27.3 µM (inactive)	> 10 µM (inactive)	23.1 µM (inactive)	18.4 µM (inactive)	35.5 µM (inactive)	14.2 µM (inactive)	10.4 µM (inactive)	18.1 µM (inactive)	22.9 µM (inactive)
CCCCC/C=C/C/C=C\CCCCCCCC(=O)NC1CC(O)C(O)NC(=O)C2C(O)C(C)CN2C(=O)C(C(C)O)NC(=O)C(C(O)C(O)c2ccc(O)cc2)NC(=O)C2CC(O)CN2C(=O)C(C(C)O)NC1=O (stereo not drawn) (X55-[ξOrn(4,5-diOH)]T[Hyp][ξhTyr(βξ-OH,γξ-OH)]T[ξPro(3ξ-OH,4ξ-Me)]; lactam 1-C; configuration not given here)	> 100 µM (inactive)	> 100 µM (inactive)	> 100 µM (inactive)	> 100 µM (inactive)	> 100 µM (inactive)	> 100 µM (inactive)	> 100 µM (inactive)	> 100 µM (inactive)	> 100 µM (inactive)	> 100 µM (inactive)	> 100 µM (inactive)	> 100 µM (inactive)	> 100 µM (inactive)	> 100 µM (inactive)	> 100 µM (inactive)	> 100 µM (inactive)	> 100 µM (inactive)	> 100 µM (inactive)	> 100 µM (inactive)
CCOC(=O)c1nc2ccccc2nc1Nc1ccc(C(=O)OC)s1	> 100 µM (inactive)	> 100 µM (inactive)	> 100 µM (inactive)	> 100 µM (inactive)	47.4 µM (inactive)	> 100 µM (inactive)	> 100 µM (inactive)	> 100 µM (inactive)	> 100 µM (inactive)	> 100 µM (inactive)	> 100 µM (inactive)	> 100 µM (inactive)	> 100 µM (inactive)	> 100 µM (inactive)	> 100 µM (inactive)	> 100 µM (inactive)	> 100 µM (inactive)	> 100 µM (inactive)	> 100 µM (inactive)
COc1ccc(C(=O)/C=C/c2ccc(O)c(O)c2F)c(OC)c1	3.2 µM (inactive)	5.38 µM (inactive)	9.18 µM (inactive)	3.14 µM (inactive)	0.327 µM (active)	8.97 µM (inactive)	2.75 µM (inactive)	2.94 µM (inactive)	4.36 µM (inactive)	2.43 µM (inactive)	4.09 µM (inactive)	3.44 µM (inactive)	8.11 µM (inactive)	4.02 µM (inactive)	4.62 µM (inactive)	1.85 µM (inactive)	7.69 µM (inactive)	0.893 µM (active)	8.3 µM (inactive)
COC1=C(C)C(=O)c2c(c(COC(N)=O)c3n2CC2C3N2C)C1=O (stereo unspecified)	0.0112 µM (active)	0.0222 µM (active)	0.0117 µM (active)	0.0555 µM (active)	< 0.0124 µM (active)	< 0.01 µM (active)	< 0.01 µM (active)	< 0.01 µM (active)	< 0.01 µM (active)	< 0.0108 µM (active)	0.0826 µM (active)	< 0.01 µM (active)	0.0502 µM (active)	< 0.0125 µM (active)	< 0.025 µM (active)	< 0.0154 µM (active)	< 0.0114 µM (active)	< 0.01 µM (active)	< 0.0115 µM (active)
Nc1ccc2c(=S)c3ccccc3[nH]c2c1	33.2 µM (inactive)	48.4 µM (inactive)	> 53.6 µM (inactive)	34 µM (inactive)	46.8 µM (inactive)	19.3 µM (inactive)	27.4 µM (inactive)	28.4 µM (inactive)	24.3 µM (inactive)	22.9 µM (inactive)	62.8 µM (inactive)	> 72.1 µM (inactive)	43.1 µM (inactive)	24.3 µM (inactive)	43.3 µM (inactive)	13.8 µM (inactive)	31.7 µM (inactive)	25.1 µM (inactive)	41.6 µM (inactive)

— ChEMBL document CHEMBL1201862, “PubChem BioAssay data set” (2004)
